In the NIST ThermoML archive (doi:10.1016/j.fluid.2015.05.009):

Assays:
[1] = for viscosity / mass density: 101.33 kPa, Liquid; for viscosity: Concentric cylinders viscometry; for mass density: Vibrating tube method; for surface tension liquid-gas: Pendant drop shape
[2] = refractive index (Na D-line) (dimensionless); conditions: 101.33 kPa, Liquid, Standard Abbe refractometry

CCCC[P+](C)(CCCC)CCCC.COS(=O)(=O)[O-] [tributylmethylphosphonium methyl sulfate]
Conditions | mass density, [1] [kg/m3] | refractive index, [2] | surface tension liquid-gas, [1] [mN/m] | viscosity, [1] [mPa·s]
283.15 K | 1076.5 | 1.48038 | – | 6214.1
288.15 K | 1073.4 | 1.47891 | – | 3840.1
293.15 K | 1070.3 | 1.47742 | – | 2476.4
293.2 K | – | – | 35.5 | –
298.15 K | 1067.2 | 1.47632 | – | 1629.2
298.2 K | – | – | 34.7 | –
303.15 K | 1064.1 | 1.47427 | – | 1109.1
303.2 K | – | – | 34.1 | –
308.15 K | 1061 | 1.47232 | – | 774.5
313.1 K | – | – | 33.5 | –
313.15 K | 1057.9 | 1.47072 | – | 555
318.15 K | 1054.8 | 1.46912 | – | 403.6
323.1 K | – | – | 32.9 | –
323.15 K | 1051.8 | 1.46758 | – | 300
328.15 K | 1048.9 | 1.46603 | – | 227
333.1 K | – | – | 32.2 | –
333.15 K | 1045.9 | 1.46457 | – | 174.7
338.15 K | 1043 | 1.46318 | – | 136.3
343.15 K | 1040.1 | 1.46185 | – | 107.9
348.15 K | 1037.3 | 1.46067 | – | 86.4
353.15 K | 1034.4 | 1.45965 | – | 70

CCCC[P+](CC)(CCCC)CCCC.CCOP(=O)([O-])OCC [tributylethylphosphonium diethylphosphate]
Conditions | mass density, [1] [kg/m3] | refractive index, [2] | surface tension liquid-gas, [1] [mN/m] | viscosity, [1] [mPa·s]
283.15 K | 1021.5 | 1.47176 | – | 1018.4
288.15 K | 1018 | 1.46996 | – | 669.5
293.15 K | 1014.4 | 1.46809 | – | 466.4
293.2 K | – | – | 31.4 | –
298.15 K | 1010.9 | 1.46618 | – | 316.8
298.2 K | – | – | 30.5 | –
303.15 K | 1007.5 | 1.46474 | – | 226.7
303.2 K | – | – | 29.8 | –
308.15 K | 1004.1 | 1.46308 | – | 166
313.1 K | – | – | 29.2 | –
313.15 K | 1000.7 | 1.4611 | – | 124.7
318.15 K | 997.6 | 1.45923 | – | 94.6
323.1 K | – | – | 28.5 | –
323.15 K | 994.3 | 1.45738 | – | 73.4
328.15 K | 990.9 | 1.45563 | – | 57.9
333.1 K | – | – | 27.5 | –
333.15 K | 987.6 | 1.45385 | – | 46.4
338.15 K | 984.3 | 1.45212 | – | 37.5
343.1 K | – | – | 31.4 | –
343.15 K | 980.9 | 1.45045 | – | 30.8
348.15 K | 977.6 | 1.4488 | – | 25.6
353.15 K | 974.3 | 1.44718 | – | 21.6

CCCCCCCC[P+](CCCCCCCC)(CCCCCCCC)CCCCCCCC.[Br-] [tetraoctylphosphonium bromide]
Conditions | mass density, [1] [kg/m3] | refractive index, [2] | surface tension liquid-gas, [1] [mN/m] | viscosity, [1] [mPa·s]
318.1 K | – | – | 27.4 | –
318.15 K | 945 | 1.48262 | – | 376.5
323.1 K | – | – | 27.1 | –
323.15 K | 942 | 1.48092 | – | 289.9
328.15 K | 938.9 | 1.47916 | – | 226.4
333.1 K | – | – | 26.6 | –
333.15 K | 935.9 | 1.47699 | – | 178.7
338.15 K | 932.9 | 1.47523 | – | 142.1
343.1 K | – | – | 26 | –
343.15 K | 929.8 | 1.47354 | – | 114.4
348.15 K | 926.8 | 1.47195 | – | 93.4
353.15 K | 923.7 | 1.47035 | – | 76.8

CC(C)C[P+](C)(CC(C)C)CC(C)C.Cc1ccc(S(=O)(=O)[O-])cc1 [triisobutylmethylphosphonium p-toluenesulfonate]
Conditions | mass density, [1] [kg/m3] | refractive index, [2] | surface tension liquid-gas, [1] [mN/m] | viscosity, [1] [mPa·s]
283.15 K | 1082.4 | 1.52489 | – | 21829
288.15 K | 1079.3 | 1.52338 | – | 11305
293.15 K | 1076.2 | 1.5217 | – | 6231.9
293.2 K | – | – | 38.1 | –
298.15 K | 1073.2 | 1.5203 | – | 3612.4
298.2 K | – | – | 37.3 | –
303.15 K | 1070.1 | 1.51828 | – | 2199.9
303.2 K | – | – | 36.6 | –
308.15 K | 1067 | 1.51635 | – | 1397.3
313.1 K | – | – | 35.5 | –
313.15 K | 1064 | 1.51433 | – | 917.9
318.15 K | 1060.9 | 1.51233 | – | 623.7
323.1 K | – | – | 35 | –
323.15 K | 1057.7 | 1.51055 | – | 436.2
328.15 K | 1054.7 | 1.50872 | – | 313.1
333.1 K | – | – | 34.3 | –
333.15 K | 1051.8 | 1.50698 | – | 230.1
338.15 K | 1048.8 | 1.50537 | – | 172.7
343.15 K | 1045.9 | 1.50391 | – | 132.1
348.15 K | 1043.1 | 1.50252 | – | 102.8
353.15 K | 1040.2 | 1.50124 | – | 81.3
